Here are results for 4 molecules from publication PMC5461952 (Chemical research in toxicology, 2012).

Series [1] addresses T1, human P450 1A1 (Homo sapiens, UniProt P04798).
T1 sequence (P04798 1-512): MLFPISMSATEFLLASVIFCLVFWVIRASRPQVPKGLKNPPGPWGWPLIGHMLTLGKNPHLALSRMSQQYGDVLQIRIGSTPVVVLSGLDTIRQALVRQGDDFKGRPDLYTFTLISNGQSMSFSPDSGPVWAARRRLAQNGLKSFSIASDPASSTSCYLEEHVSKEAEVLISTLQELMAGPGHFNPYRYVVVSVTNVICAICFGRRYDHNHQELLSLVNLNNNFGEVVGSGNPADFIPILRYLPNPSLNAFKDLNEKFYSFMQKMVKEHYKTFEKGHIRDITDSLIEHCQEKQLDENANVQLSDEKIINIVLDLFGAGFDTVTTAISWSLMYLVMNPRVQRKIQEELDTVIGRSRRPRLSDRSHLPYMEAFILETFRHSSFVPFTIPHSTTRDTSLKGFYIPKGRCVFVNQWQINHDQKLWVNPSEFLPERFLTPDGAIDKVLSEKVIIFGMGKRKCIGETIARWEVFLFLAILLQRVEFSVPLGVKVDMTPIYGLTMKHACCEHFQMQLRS
The series is described as follows: EROD. The class given is biochemical. The following applies: for IC50 P450 1A1: human P450 1A1 supersomes, EROD, 5 μM substrate, 37 °C, Dixon plot.

A further series concerns the target T2, CYP1A1 (Homo sapiens, UniProt P04798).
T2 sequence (P04798 1-512): T1 sequence (P04798 1-512)
As to the kind of experiment: Mechanism-based. The class given is biochemical. The note with it: human, human P450 1A1 supersomes, pH 7.6, probe 7-ethoxyresorufin (EROD).

In series [2] the target is T1, human P450 1A1. The series is described as follows: Mechanism-based. The class given is biochemical.
The target in the next series is T3, rat P4502B1 (Rattus norvegicus, UniProt P00176).
T3 sequence (P00176 1-491): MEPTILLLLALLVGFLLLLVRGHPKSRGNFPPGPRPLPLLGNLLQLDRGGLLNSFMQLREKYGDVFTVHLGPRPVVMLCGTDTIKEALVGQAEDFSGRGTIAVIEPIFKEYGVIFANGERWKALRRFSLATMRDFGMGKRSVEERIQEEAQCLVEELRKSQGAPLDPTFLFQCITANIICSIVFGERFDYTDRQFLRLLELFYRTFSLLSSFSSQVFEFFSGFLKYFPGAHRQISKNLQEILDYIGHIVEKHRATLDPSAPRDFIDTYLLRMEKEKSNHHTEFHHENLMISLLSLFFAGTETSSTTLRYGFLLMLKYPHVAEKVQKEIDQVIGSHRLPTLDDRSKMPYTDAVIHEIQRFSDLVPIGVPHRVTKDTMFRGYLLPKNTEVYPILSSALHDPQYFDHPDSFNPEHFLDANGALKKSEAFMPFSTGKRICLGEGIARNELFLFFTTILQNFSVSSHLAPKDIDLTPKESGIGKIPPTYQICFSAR
As to the kind of experiment: PROD.

A further series addresses T4, human P450 2A6 (Homo sapiens, UniProt P11509).
T4 sequence (P11509 1-494): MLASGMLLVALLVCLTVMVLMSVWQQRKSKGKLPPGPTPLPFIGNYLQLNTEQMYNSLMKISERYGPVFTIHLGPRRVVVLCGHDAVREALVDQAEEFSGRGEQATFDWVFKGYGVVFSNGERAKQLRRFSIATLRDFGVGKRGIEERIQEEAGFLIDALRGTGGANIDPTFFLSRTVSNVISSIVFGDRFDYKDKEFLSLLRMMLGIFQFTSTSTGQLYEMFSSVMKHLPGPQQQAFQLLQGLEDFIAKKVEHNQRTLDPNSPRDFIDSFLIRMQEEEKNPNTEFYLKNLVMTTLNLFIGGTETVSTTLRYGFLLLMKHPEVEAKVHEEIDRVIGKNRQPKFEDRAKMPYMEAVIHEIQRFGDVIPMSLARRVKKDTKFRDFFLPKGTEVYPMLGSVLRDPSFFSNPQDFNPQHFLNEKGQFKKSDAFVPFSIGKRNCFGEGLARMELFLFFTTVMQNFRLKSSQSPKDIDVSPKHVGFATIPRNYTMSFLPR
The series is described as follows: Coumarin 7-hydroxylation inhibition assay in supersomes.

The target of series [3] is T5, human P450 1A2 (Homo sapiens, UniProt P05177).
T5 sequence (P05177 1-516): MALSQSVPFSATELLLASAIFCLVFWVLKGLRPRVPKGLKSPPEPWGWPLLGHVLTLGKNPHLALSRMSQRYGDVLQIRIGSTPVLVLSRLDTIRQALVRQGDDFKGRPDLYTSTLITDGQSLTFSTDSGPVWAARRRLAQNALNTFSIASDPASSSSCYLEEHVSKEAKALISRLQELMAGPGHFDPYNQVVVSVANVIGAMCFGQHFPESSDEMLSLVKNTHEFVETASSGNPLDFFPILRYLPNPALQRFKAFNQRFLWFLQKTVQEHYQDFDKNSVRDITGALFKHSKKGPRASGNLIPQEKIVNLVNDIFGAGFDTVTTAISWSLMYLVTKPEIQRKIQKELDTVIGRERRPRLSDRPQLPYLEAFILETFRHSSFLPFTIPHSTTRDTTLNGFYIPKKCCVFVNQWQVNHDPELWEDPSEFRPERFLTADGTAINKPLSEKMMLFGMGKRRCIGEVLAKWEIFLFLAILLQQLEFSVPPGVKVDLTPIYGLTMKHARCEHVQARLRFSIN
As to the kind of experiment: Mechanism-based. In kind it is biochemical.

The target of series [4] is T5, human P450 1A2. As to the kind of experiment: MROD. In kind it is biochemical.
[5] abbreviates: 5 min preincubation in presence and absence of NADPH.

SMILES strings stand for the structures. “Also recorded” adds a separate entry of the source. Read-outs that look alike come from different tables or passages of the source. Some results are limits rather than exact numbers.

In the case of `Cc1cc(Cl)c2c(c1N)C(=O)c1ccccc1C2=O` [Compound 1, 1-Amino-4-chloro-2-methylanthracene-9,10-dione], the “IC50 P450 1A1” value on human P450 1A1 [1] is recorded as “submicromolar potency”. For the same molecule, the KI (inactivation) at 6 min on CYP1A1 was 5.38 µM. Further, the “Mechanism-based inhibition of P450 1A1 (result in words)” value (shortened to “Mechanism-based inhibition of P450 1A1”) on human P450 1A1 [2] (setting [5]) is listed as “act as a mechanism-based inhibitor; also recorded: demonstrated mechanism-based inhibition”. The kinact on human P450 1A1 [2] (read-out: Kinactivation (rate constant for maximal inactivation at saturation), P450 1A1) was 0.0262 s⁻¹; at human P450 1A2 [3] (read-out: Kinactivation, P450 1A2), 0.00133 s⁻¹. Further, the IC50 against rat P4502B1 and against human P450 2A6 was over 50 µM each time. Moreover, the Ki at human P450 1A2 [3] was determined as 0.5 µM. Moreover, at human P450 1A2 [3] (setting [5]), the “Mechanism-based inhibition of P450 1A2 (result in words)” value (“Mechanism-based inhibition of P450 1A2” below) is listed as “act as a mechanism-based inhibitor; also recorded: demonstrated mechanism-based inhibition”.

As for `Nc1ccc(O)c2c1C(=O)c1ccccc1C2=O` [Compound 2, 1-amino-4-hydroxyanthracene-9,10-dione], the IC50 was 2.09 µM against human P450 1A1 [1], 2.15 µM at rat P4502B1, over 50 µM at human P450 2A6 and 0.53 µM against human P450 1A2 [4]. For the same molecule, the “Mechanism-based inhibition of P450 1A1” value at human P450 1A1 [2] (setting [5]) is reported as “did not show mechanism-based inhibition; also recorded: does not demonstrate mechanism-based inhibition”. Moreover, the “Mechanism-based inhibition of P450 1A2” value on human P450 1A2 [3] (setting [5]) was “did not show mechanism-based inhibition; also recorded: does not demonstrate mechanism-based inhibition”.

For `CC(C)(C)C1=CC(=O)c2c(ccc(C(C)(C)C)c2O)C1=O` [Compound 8, 2,6-Di-tert-butyl-5-hydroxynaphthalene-1,4-dione], the half-inhibitory concentration (IC50) against human P450 1A1 [1] is over 50 µM; at rat P4502B1, 5.66 µM; on human P450 2A6, over 50 µM; against human P450 1A2 [4] it was over 50 µM. In addition, the “IC50 P450 1A1” value against human P450 1A1 [1] was “did not inhibit”. The “IC50 P450 1A2” value against human P450 1A2 [4] (human P450 1A2 supersomes, MROD, 5 μM substrate, 37 °C, Dixon plot) is given as “did not inhibit”.

As to `Cc1cc(O)c2c(c1)C(=O)c1cc(O)cc(O)c1C2=O` [emodin, Emodin, reference compound], the “Mechanism-based inhibition of P450 1A1” value at human P450 1A1 [2] is “did not cause mechanism-based inhibition”. Moreover, the values for the 50% inhibitory concentration (IC50) at rat P4502B1 and against human P450 2A6 were 14.9 µM and over 50 µM, respectively. Besides, the “Mechanism-based inhibition of P450 1A2” value on human P450 1A2 [3] is listed as “did not cause mechanism-based inhibition”.
